In the supplement of paper PMC7840683:

Tested on: HepaRG
Test: LDH release cytotoxicity, % of total lysis control; higher = more cytotoxic
Conditions: 48 h
Outline: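 Single-lot HepaRG cells on collagen I-coated 96-well plates were exposed for 48 h in duplicate, in serum-free induction medium with 0.5% DMSO, to eight-point half-log series (test chemicals top 100 µM). Total lysis wells received 0.1% Triton X, and LDH leakage into 50 µL spent medium was read as resorufin fluorescence (CytoTox-ONE, Tecan Safire). Percent cytotoxicity was normalized to on-plate vehicle and total lysis controls and averaged over the duplicates.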

CCC(C)N(C)C(=O)c1cc2ccccc2c(-c2ccccc2Cl)n1 (centres undefined)
Conditions	LDH release cytotoxicity [%]
0.02008 µM	-1.37
0.0635 µM	-2.28
0.200805 µM	-3.22
0.635 µM	-3.04
2.00805 µM	-2.99
6.35 µM	-2.9
20.0805 µM	-1.43
63.5 µM	7.06

CCc1cc(SCc2sc(-c3ccc(C(F)(F)F)cc3)nc2CN2CCN(c3ccc(OC)cc3)CC2)ccc1OCC(=O)O
Conditions	LDH release cytotoxicity [%]
0.03162 µM	-1.41
0.1 µM	-1.04
0.3162278 µM	-0.879
1 µM	-1.49
3.16228 µM	-2.29
10 µM	21
31.6228 µM	70.2
100 µM	84

CCc1nn(C2CCCCC2)c2cc(C3(C#N)CCC(C(=O)O)CC3)ccc12 (centres undefined)
Conditions	LDH release cytotoxicity [%]
0.03162 µM	-0.818
0.1 µM	-1.01
0.3162278 µM	-0.56
1 µM	-1.9
3.16228 µM	-1.26
10 µM	-1.43
31.6228 µM	1.5
100 µM	7.65

CCC1CC(N(Cc2cc(C(F)(F)F)cc(C(F)(F)F)c2)C(C)=O)c2cc(C(F)(F)F)ccc2N1C(=O)OC(C)C (centres undefined)
Conditions	LDH release cytotoxicity [%]
0.03162 µM	-0.374
0.1 µM	0.141
0.3162278 µM	-0.658
1 µM	-0.248
3.16228 µM	-1.3
10 µM	0.748
31.6228 µM	3.11
100 µM	7.54

CCC1CCC(NCc2cc3c(cc2OC)C2CC2C(=O)N3C)C(c2ccccc2)N1 (centres undefined)
Conditions	LDH release cytotoxicity [%]
0.03162 µM	-1.16
0.1 µM	-1.78
0.3162278 µM	-0.445
1 µM	-1.5
3.16228 µM	-0.96
10 µM	-0.794
31.6228 µM	0.439
100 µM	7.84

CCCCc1nc2cccnc2n1Cc1ccc(-c2ccccc2-c2nnn[nH]2)cc1
Conditions	LDH release cytotoxicity [%]
0.03162 µM	-0.82
0.1 µM	-1.42
0.3162278 µM	-0.874
1 µM	-0.211
3.16228 µM	-0.956
10 µM	-0.404
31.6228 µM	-0.609
100 µM	1.6

CCCCC1CN(CC2CCOCC2)C(=O)OC12CCN(C1(C)CCN(C(=O)c3c(C)ncnc3C)CC1)CC2 (centres undefined)
Conditions	LDH release cytotoxicity [%]
0.02846 µM	-1.26
0.09 µM	-1.45
0.284605 µM	-0.87
0.9 µM	-1.55
2.84605 µM	-1.48
9 µM	-1.68
28.4605 µM	-0.822
90 µM	-0.451

CCCN(C1CCN(C(=O)C2CCNCC2)CC1)C1CCc2ccc(OC)cc2C1 (centres undefined)
Conditions	LDH release cytotoxicity [%]
0.03162 µM	-0.976
0.1 µM	-1.04
0.3162278 µM	-2.19
1 µM	-1.39
3.16228 µM	-1.79
10 µM	-1.52
31.6228 µM	0.507
100 µM	45.7

CCCOc1ccc(S(=O)(=O)N2CCN(CC)CC2)cc1-c1nc2c(CC)n(Cc3ccccn3)nc2c(=O)[nH]1
Conditions	LDH release cytotoxicity [%]
0.03162 µM	-0.95
0.1 µM	-1.66
0.3162278 µM	-1.8
1 µM	-1.82
3.16228 µM	-1.41
10 µM	-1.21
31.6228 µM	-0.893
100 µM	5.44

CCN(C(=O)c1cc(C)cc(OCC(C)Nc2ccncc2)c1)C(C)C (centres undefined)
Conditions	LDH release cytotoxicity [%]
0.02135 µM	-1.12
0.0675 µM	-0.177
0.2134537 µM	-0.209
0.675 µM	0.1
2.13454 µM	-0.21
6.75 µM	-0.0445
21.345374 µM	0.884
67.5 µM	19

CCN(Cc1cccnc1)C(=O)c1cccc(Cl)c1C1(C)C(=O)N(Cc2ccc(OC)cc2OC)c2ccc(Cl)cc21 (centres undefined)
Conditions	LDH release cytotoxicity [%]
0.02988 µM	-0.884
0.0945 µM	-1.62
0.298835 µM	-1.35
0.945 µM	-1.68
2.98835 µM	-2.31
9.45 µM	1.33
29.8835 µM	7.13
94.5 µM	11.6

CCn1nc(C)c2c1C(=O)NCC(c1ccc(O)cc1)=N2
Conditions	LDH release cytotoxicity [%]
0.03162 µM	-0.976
0.1 µM	-1.16
0.3162278 µM	-0.653
1 µM	-0.0547
3.16228 µM	0.209
10 µM	0.546
31.6228 µM	1.6
100 µM	3.89

CCOC(=O)c1ccc(C2CCC(NCC(O)COc3ccc(O)c(NS(C)(=O)=O)c3)CC2)cc1 (centres undefined)
Conditions	LDH release cytotoxicity [%]
0.03162 µM	-1.1
0.1 µM	-1.92
0.3162278 µM	-1.82
1 µM	-2.5
3.16228 µM	-1.76
10 µM	-1.05
31.6228 µM	-1.59
100 µM	-0.279

CCOC(=O)COc1ccc2c(c1)CC(NCC(O)c1cccc(Cl)c1)CC2 (centres undefined)
Conditions	LDH release cytotoxicity [%]
0.02893 µM	-1.56
0.0915 µM	0.00613
0.289348 µM	-0.98
0.915 µM	-1.71
2.89348 µM	-1.72
9.15 µM	-1.13
28.9348 µM	1.91
91.5 µM	10.4

CCOc1cccc(-n2cc(C(=O)N3CCN(c4cc(C(=O)O)c5ccccc5c4)CC3)nc2-c2ccc(C)cc2)c1
Conditions	LDH release cytotoxicity [%]
0.03162 µM	1.24
0.1 µM	-0.332
0.3162278 µM	0.167
1 µM	-0.486
3.16228 µM	-0.46
10 µM	-0.211
31.6228 µM	9.35
100 µM	44.3

CCOc1cccc(C2(N3CCN(c4ccccc4)CC3)CCC(C)CC2)c1 (centres undefined)
Conditions	LDH release cytotoxicity [%]
0.03162 µM	-1.75
0.1 µM	-2.4
0.3162278 µM	-2.68
1 µM	-2.73
3.16228 µM	-2.22
10 µM	-2.03
31.6228 µM	-1.97
100 µM	-1.12

CCOc1ccc2c(n1)C(=O)C(C(=O)NCc1ccccc1)C=N2 (centres undefined)
Conditions	LDH release cytotoxicity [%]
0.03162 µM	-1.14
0.1 µM	-1.5
0.3162278 µM	-0.931
1 µM	-1.34
3.16228 µM	-0.884
10 µM	-0.792
31.6228 µM	-1.83
100 µM	-0.163

CC[C@H](C)[C@@H](C(=O)O)n1sc2ccccc2c1=O
Conditions	LDH release cytotoxicity [%]
0.03162 µM	-0.834
0.1 µM	-1.623
0.3162278 µM	-0.553
1 µM	-1.34
3.16228 µM	-1.12
10 µM	-0.759
31.6228 µM	-1.34
100 µM	0.0312
